Assay results published in PubChem BioAssay (NCI).
In brackets after ≈: the same amount, converted by molar mass.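 Where inhibition never reached the appropriate level, the endpoint shown equals the highest concentration tested. Otherwise, values were interpolated linearly from a five-concentration, 48-hour dose response in 96-well plates. At the GI50, growth is halved. Definition used: TGI = concentration required for complete inhibition of growth.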 Residues, ends and D or L forms follow the SMILES beside them. *: point of attachment. Boc = CC(C)(C)OC(=O)*

What was measured:
Assay in all cases: NCI-60 cell line screen, 48 h
K-562 leukemia = test system: K-562 leukemia
HS 578T breast = test system: HS 578T breast
RPMI-8226 leukemia = test system: RPMI-8226 leukemia
KM12 colon = test system: KM12 colon
U251 CNS = test system: U251 CNS
M14 melanoma = test system: M14 melanoma
MDA-MB-435 = test system: MDA-MB-435
NCI-H23 lung = test system: NCI-H23 lung
UACC-62 melanoma = test system: UACC-62 melanoma
MALME-3M melanoma = test system: MALME-3M melanoma
A549 NSCLC = test system: A549 NSCLC
SR leukemia = test system: SR leukemia
OVCAR-8 ovarian = test system: OVCAR-8 ovarian
SF-295 CNS = test system: SF-295 CNS
HCT-15 colon = test system: HCT-15 colon
COLO 205 colon = test system: COLO 205 colon
HL-60(TB) leukemia = test system: HL-60(TB) leukemia
SK-MEL-28 melanoma = test system: SK-MEL-28 melanoma
NCI-H460 lung = test system: NCI-H460 lung
IGROV1 ovarian = test system: IGROV1 ovarian
TK-10 renal = test system: TK-10 renal
HCT-116 colon = test system: HCT-116 colon
MCF7 breast = test system: MCF7 breast
BT-549 breast = test system: BT-549 breast
HCC-2998 colon = test system: HCC-2998 colon
MDA-MB-231 breast = test system: MDA-MB-231 breast
LOX IMVI melanoma = test system: LOX IMVI melanoma
SNB-75 CNS = test system: SNB-75 CNS
NCI-H522 lung = test system: NCI-H522 lung
EKVX NSCLC = test system: EKVX NSCLC
SK-OV-3 ovarian = test system: SK-OV-3 ovarian
CCRF-CEM leukemia = test system: CCRF-CEM leukemia
MOLT-4 leukemia = test system: MOLT-4 leukemia
HOP-92 NSCLC = test system: HOP-92 NSCLC
UACC-257 melanoma = test system: UACC-257 melanoma
OVCAR-3 ovarian = test system: OVCAR-3 ovarian
SF-539 CNS = test system: SF-539 CNS
SK-MEL-2 melanoma = test system: SK-MEL-2 melanoma
DU-145 prostate = test system: DU-145 prostate
SW-620 colon = test system: SW-620 colon
MDA-N = test system: MDA-N
SN12C renal = test system: SN12C renal
SF-268 CNS = test system: SF-268 CNS
SNB-19 CNS = test system: SNB-19 CNS
OVCAR-4 ovarian = test system: OVCAR-4 ovarian
SK-MEL-5 melanoma = test system: SK-MEL-5 melanoma
OVCAR-5 ovarian = test system: OVCAR-5 ovarian
HT29 colon = test system: HT29 colon
A498 renal = test system: A498 renal
PC-3 prostate = test system: PC-3 prostate
UO-31 renal = test system: UO-31 renal
ACHN renal = test system: ACHN renal
NCI/ADR-RES ovarian = test system: NCI/ADR-RES ovarian
786-0 renal = test system: 786-0 renal
NCI-H226 lung = test system: NCI-H226 lung
HOP-62 NSCLC = test system: HOP-62 NSCLC

Structure (SMILES): COC(=O)CNC(=O)C(Cc1ccccc1)NC(=O)C(Cc1ccccc1)NC(=O)OC(C)(C)C (stereo not drawn) (Boc-Phe-Phe-Gly-OMe; configuration not given here)
- GI50 (K-562 leukemia): 20.7 µg/mL (≈ 42.8 µM)
- TGI (K-562 leukemia): 41.2 µg/mL
- GI50 (HS 578T breast): 32.8 µg/mL (≈ 67.8 µM)
- GI50 (RPMI-8226 leukemia): 20.9 µg/mL (≈ 43.2 µM)
- TGI (RPMI-8226 leukemia): 49 µg/mL
- GI50 (KM12 colon): 28 µg/mL (≈ 57.8 µM)
- TGI (KM12 colon): 74.5 µg/mL
- GI50 (U251 CNS): 32.4 µg/mL (≈ 67 µM)
- TGI (U251 CNS): 94.7 µg/mL
- GI50 (M14 melanoma): 27.9 µg/mL (≈ 57.6 µM)
- TGI (M14 melanoma): 65.9 µg/mL
- GI50 (MDA-MB-435): 42.8 µg/mL (≈ 88.5 µM)
- GI50 (NCI-H23 lung): 35.7 µg/mL (≈ 73.8 µM)
- GI50 (UACC-62 melanoma): 15.6 µg/mL (≈ 32.2 µM)
- TGI (UACC-62 melanoma): 28.9 µg/mL
- GI50 (MALME-3M melanoma): 22.3 µg/mL (≈ 46.1 µM)
- TGI (MALME-3M melanoma): 55 µg/mL
- GI50 (A549 NSCLC): 83.3 µg/mL (≈ 172 µM)
- GI50 (SR leukemia): 21.7 µg/mL (≈ 44.8 µM)
- TGI (SR leukemia): 46.4 µg/mL
- GI50 (OVCAR-8 ovarian): 25.7 µg/mL (≈ 53.1 µM)
- TGI (OVCAR-8 ovarian): 74.2 µg/mL
- GI50 (SF-295 CNS): 51.1 µg/mL (≈ 106 µM)
- GI50 (HCT-15 colon): 69.8 µg/mL (≈ 144 µM)
- GI50 (COLO 205 colon): 13.5 µg/mL (≈ 27.9 µM)
- TGI (COLO 205 colon): 69.5 µg/mL
- GI50 (HL-60(TB) leukemia): 26.5 µg/mL (≈ 54.7 µM)
- TGI (HL-60(TB) leukemia): 54.8 µg/mL (≈ 113 µM)
- GI50 (SK-MEL-28 melanoma): 18.7 µg/mL (≈ 38.7 µM)
- TGI (SK-MEL-28 melanoma): 38.2 µg/mL
- GI50 (NCI-H460 lung): 33.7 µg/mL (≈ 69.6 µM)
- GI50 (IGROV1 ovarian): 41.6 µg/mL (≈ 86 µM)
- GI50 (TK-10 renal): 37.6 µg/mL (≈ 77.8 µM)
- GI50 (HCT-116 colon): 22.5 µg/mL (≈ 46.5 µM)
- TGI (HCT-116 colon): 53.3 µg/mL
- GI50 (MCF7 breast): 34.8 µg/mL (≈ 72 µM)
- GI50 (BT-549 breast): 27.8 µg/mL (≈ 57.5 µM)
- TGI (BT-549 breast): 69.2 µg/mL (≈ 143 µM)
- GI50 (HCC-2998 colon): 18.9 µg/mL (≈ 39 µM)
- TGI (HCC-2998 colon): 40.2 µg/mL (≈ 83.2 µM)
- GI50 (MDA-MB-231 breast): 48.5 µg/mL (≈ 100 µM)
- GI50 (LOX IMVI melanoma): 20.8 µg/mL (≈ 43 µM)
- TGI (LOX IMVI melanoma): 50.4 µg/mL
- GI50 (SNB-75 CNS): 30.1 µg/mL (≈ 62.2 µM)
- GI50 (NCI-H522 lung): 2.35 µg/mL (≈ 4.86 µM)
- TGI (NCI-H522 lung): 12.2 µg/mL
- GI50 (EKVX NSCLC): 37.1 µg/mL (≈ 76.6 µM)
- GI50 (SK-OV-3 ovarian): 59.6 µg/mL (≈ 123 µM)
- GI50 (CCRF-CEM leukemia): 21.1 µg/mL (≈ 43.6 µM)
- TGI (CCRF-CEM leukemia): 48.9 µg/mL
- GI50 (MOLT-4 leukemia): 18.4 µg/mL (≈ 38.1 µM)
- TGI (MOLT-4 leukemia): 38.8 µg/mL
- GI50 (HOP-92 NSCLC): 24.9 µg/mL (≈ 51.5 µM)
- TGI (HOP-92 NSCLC): 43.7 µg/mL
- GI50 (UACC-257 melanoma): 32.4 µg/mL (≈ 67 µM)
- GI50 (OVCAR-3 ovarian): 20 µg/mL (≈ 41.4 µM)
- TGI (OVCAR-3 ovarian): 42.9 µg/mL
- GI50 (SF-539 CNS): 21.4 µg/mL (≈ 44.3 µM)
- TGI (SF-539 CNS): 41 µg/mL (≈ 84.9 µM)
- GI50 (SK-MEL-2 melanoma): 41.2 µg/mL (≈ 85.2 µM)
- GI50 (DU-145 prostate): 27.7 µg/mL (≈ 57.3 µM)
- GI50 (SW-620 colon): 49.1 µg/mL (≈ 102 µM)
- GI50 (MDA-N): 32.9 µg/mL (≈ 68.1 µM)
- GI50 (SN12C renal): 31.3 µg/mL (≈ 64.6 µM)
- GI50 (SF-268 CNS): 78.4 µg/mL (≈ 162 µM)

Structure (SMILES): C/C1=C\[C@H](C)C[C@H](C)OC(=O)C[C@H](c2ccc(O)cc2)NC(=O)[C@H](Cc2ccc(O)c(I)c2)N(C)C(=O)[C@H](C)NC(=O)[C@@H](C)C1
- TGI (SNB-19 CNS): > 25 µM
- TGI (K-562 leukemia): > 25 µM
- TGI (HS 578T breast): 245 nM
- TGI (RPMI-8226 leukemia): > 25 µM
- TGI (KM12 colon): > 25 µM
- TGI (OVCAR-4 ovarian): 18.6 nM
- TGI (U251 CNS): 6.9 µM
- TGI (SK-MEL-5 melanoma): 11.1 µM
- TGI (M14 melanoma): > 25 µM
- TGI (MDA-MB-435): 5.18 µM
- TGI (NCI-H23 lung): > 25 µM
- TGI (UACC-62 melanoma): 8.77 µM
- TGI (OVCAR-5 ovarian): > 25 µM
- TGI (MALME-3M melanoma): 3.06 µM
- TGI (A549 NSCLC): > 25 µM
- TGI (HT29 colon): > 25 µM
- TGI (SR leukemia): > 25 µM
- TGI (OVCAR-8 ovarian): 3.45 µM
- TGI (A498 renal): 94.8 nM
- TGI (SF-295 CNS): > 25 µM
- TGI (HCT-15 colon): > 25 µM
- TGI (COLO 205 colon): > 25 µM
- TGI (SK-MEL-28 melanoma): > 25 µM
- TGI (IGROV1 ovarian): > 25 µM
- TGI (PC-3 prostate): > 25 µM
- TGI (TK-10 renal): > 25 µM
- TGI (HCT-116 colon): 18.6 µM
- TGI (MCF7 breast): > 25 µM
- TGI (UO-31 renal): 185 nM
- TGI (ACHN renal): > 25 µM
- TGI (MDA-MB-231 breast): 433 nM
- TGI (LOX IMVI melanoma): > 25 µM
- TGI (SNB-75 CNS): 10.3 µM
- TGI (NCI-H522 lung): > 25 µM
- TGI (EKVX NSCLC): 6.84 µM
- TGI (SK-OV-3 ovarian): 16.9 µM
- TGI (CCRF-CEM leukemia): > 25 µM
- TGI (NCI/ADR-RES ovarian): 18.8 µM
- TGI (MOLT-4 leukemia): > 25 µM
- TGI (HOP-92 NSCLC): 118 nM
- TGI (OVCAR-3 ovarian): > 25 µM
- TGI (SK-MEL-2 melanoma): 6.78 µM
- TGI (786-0 renal): > 25 µM
- TGI (DU-145 prostate): > 25 µM
- TGI (SW-620 colon): > 25 µM
- TGI (MDA-N): 13.8 µM
- TGI (NCI-H226 lung): > 25 µM
- TGI (SN12C renal): 22.9 µM
- TGI (SF-268 CNS): 153 nM
- TGI (HOP-62 NSCLC): > 25 µM
